The results in this text go back to patent US20150164762A1, “USE OF ETHANOLAMINE PHOSPHATE” (priority 2012, published 2015).

For one data set, the system named is BEAS-2B cells. Put plainly: WST-8 proliferation test, BEAS-2B cells at different FBS concentrations. Type of data set: cell-based, human. How it is done:
10% FBS RPMI-1640 was used as the medium. […] Following medium replacement, 10 μl/well of EP solution was added. A proliferation test (WST-8 assay) was performed after 96 hours. The operations of the WST-8 assay were as follows.
(1) The medium was removed from the 96-well plate by decantation and tapping.
(2) WST-8 reagent (Dojindo) was mixed to a ratio of 1:10 with serum-free medium (RPMI-1640) that had been warmed in advance at 37° C., and added to the wells from which the medium had been removed.
(3) A color reaction was performed for 1 hour in a CO2 incubator, and absorbance at 450 nm and 650 nm was measured with an absorbance plate reader.
(4) Absorbance at 450 nm-absorbance at 650 nm was calculated for purposes of correction between plates.
(5) The average of the 4 blank wells was subtracted from the corrected value of all wells, and the result was given as the relative corresponding cell number.
In general terms: Tetrazolium dyes change colour on reduction, which living cells bring about.

The subject of a further data set is HBEpC cells. Put plainly: WST-8 proliferation test, primary normal human airway epithelial cells (HBEpC). Type of data set: cell-based. The procedure: BEGM (Takara Bio, complete medium) was used as the medium. […] Following medium replacement, 10 μl per well of an EP solution of 10 times the set concentration was added, and after 96 hours a proliferation test (WST-8 assay) was performed.

A further data set has as its system NHLF cells. Put plainly: WST-8 proliferation test, primary normal human lung fibroblasts (NHLF). Type of data set: cell-based. Particulars: 0% FBS DMEM, 124 hours. From the text:
10% FBS-DMEM was used as the medium.

For a further data set, the system named is HHDPC cells. In words: WST-8 proliferation test, primary normal human hair dermal papilla cells (HHDPC). How it is done: HHDPC cells (Cosmo Bio) were seeded to 1×10^4 cells/cm^2 on a 96-well plate. Complete MSCM medium (500, ScienCell) was used as the medium. After 24 hours, the cells were washed gently with 200 μl per well of PBS, the medium was replaced with 90 μl per well of 0% FBS DMEM with 1 vol % of complete MSCM medium added thereto, and the cells were cultured for 24 hours. After culture, 10 μl per well of EP solution was added, and a proliferation test (WST-8 assay) was performed 6 days after EP administration. The WST-8 assay was performed as in Example 1. The same test was performed using minoxidil, which has a clinical hair growth effect.

For a further data set, the system named is THP-1. Put plainly: WST-8 proliferation test, THP-1 floating cells. Conditions: 0% FBS, 72 hours, high concentrations of 125 μM or more. Type of data set: cell-based, human. How it is done:
(§1) THP-1 (human acute monocytic leukemia cells) and HL-60 (human myeloid leukemia cells) were logarithmically growth cultured in 10% FBS RPMI-1640 to 2 to 10×10^5 cells/cm^2 to achieve logarithmic growth before EP administration. The cell culture liquid was then centrifuged and precipitated at 1000 rpm, and 90 μl per well was dispensed onto a 96-well plate to 2×10^4 cells/cm^2 in 0% FBS RPMI-1640. […] For the WST-8 assay of the floating cells, 10 μl per well of WST-8 assay reagent was added directly to the cell suspension during culture, and after 1 hour absorbance at 450 nm and 600 nm was measured with a plate reader and the data were analyzed as in the examples above.

For another data set, the system named is HL-60. Put plainly: WST-8 proliferation test, HL-60 floating cells. Format: cell-based, human. Particulars: 0% FBS, 72 hours, even at high concentrations. The procedure:
as §1

The subject of another data set is BEAS-2B. Put plainly: Transepithelial electrical resistance (TER), BEAS-2B. Format: cell-based, human. Conditions: EP 1 mM, 1% FBS. The procedure:
Cells of the established normal human airway epithelial cell line BEAS-2B were seeded to 1×10^5 cells/cm^2 on a cell culture insert (353104, BD Falcon) (FIG. 14). 10% FBS RPMI-1640 was used as the medium. The amount of medium was 200 μl on the insert side and 750 μl on the well side. Beginning the next day, substitution/medium replacement was performed once a day with 1% FBS RPMI-1640 prepared with the following 4 reagent conditions, and transepithelial electrical resistance (TER) was measured with MilliCell (Millipore). • Condition 1: Control • Condition 2: EP 1 mM • Condition 3: Dexamethasone 1 μM (dexamethasone (Dex): positive control substance known to enhance barrier function) • Condition 4: EP 1 mM and Dex 1 μM

A further data set concerns Calu-3 cells. Put plainly: Transepithelial electrical resistance (TER), Calu-3. Type of data set: cell-based, human. Particulars: 1 mM EP, 0.1% FBS. How it is done:
Calu-3 cells were seeded to 3×10^5 cells/cm^2 on a cell culture insert (353104, BD Falcon). They were cultured until confluent in 10% FBS RPMI-1640, and once confluence was reached, 0.1% FBS RPMI-1640 containing the following was substituted, and the medium was replaced every day. TER was measured as in Example 11. The results are shown in FIG. 15. • Condition 1: Control • Condition 2: 1 μM dexamethasone • Condition 3: 1 mM EP

The next data set concerns HEKa cells. Put plainly: Transepithelial electrical resistance (TER), HEKa. Particulars: 1 mM EP. Type of data set: cell-based, human. How it is done: HEKa cells were seeded to 6×10^4 cells/cm^2 on a cell culture insert (353104, BD Falcon). Culture was performed in complete medium consisting of HKGS Kit (S-001-K, Invitrogen) added to Epilife basal medium (M-EPI-500-CA, Invitrogen), and once confluence was reached, a medium containing […] the specific compounds listed under Conditions 1 to 3 above was substituted for the complete medium, and medium replacement was performed once a day. TER was measured as in Example 11.

On to `NCCOP(=O)(O)O` [EP, Ethanolamine phosphate], for which the “proliferation of BEAS-2B cells” value with BEAS-2B cells (0-0.5% FBS, 96 hours) is “dependent on EP concentration”. Moreover, in the data set with BEAS-2B cells (high-concentration range (mM level)), the “toxicity attributable to EP” value is listed as “no obvious toxicity”. The “cell proliferation, ratio relative to control using 0 μM EP” value in the data set on BEAS-2B cells (medium contains no FBS, 96 hours) is no more than 11 times. Also, the growth-stimulating effect entry with HBEpC cells (7 μM, BEBM basal medium, 96 hours) was “roughly two-fold”; with NHLF cells, “growth-stimulating effect”. Further, in the data set on HBEpC cells (mM level), the toxicity entry is listed as “no toxicity”. In addition, in the data set on HHDPC cells (6 days), the “effective concentration range for proliferative effect” value is on record as “very broad concentration range”. Besides, the proliferative effect result in the data set on HHDPC cells (6 days) is “equal to or greater than that of minoxidil”. For the same molecule, in the data set with HHDPC cells (high concentrations), the cell toxicity entry is “non-toxic”. Moreover, the cell proliferation effect entry in the data set on THP-1 is “small cell proliferation effect”. Also, the cell proliferation ability entry in the data set on HL-60 is reported as “absolutely no cell proliferation ability”. The “increase in TER” value in the data set with BEAS-2B is recorded as 49%. The “rise in TER value relative to the control” value with Calu-3 cells came out at 2.0 fold; in the data set with HEKa cells, 2.3 fold.
